`CCC(CO)(CO)C(=O)O` showed a solubility (mole fraction) (in 1,4-dioxane, 298.15 K) of 0.122, a solubility (mole fraction) (in 1,4-dioxane, 303.15 K) of 0.153 and a solubility (mole fraction) (in 1,4-dioxane, 308.15 K) of 0.176. The solubility (mole fraction) (in 1,4-dioxane, 313.15 K) was 0.201, the solubility (mole fraction) (in 1,4-dioxane, 318.15 K) was 0.217 and the solubility (mole fraction) (in 1,4-dioxane, 323.15 K) was 0.259. For the same molecule, the solubility (mole fraction) (in 1,4-dioxane, 328.15 K) was 0.324, the solubility (mole fraction) (in MIBK, 298.15 K) was 0.0218 and the solubility (mole fraction) (in MIBK, 303.15 K) was 0.0297. It also gave a solubility (mole fraction) (in MIBK, 308.15 K) of 0.0362, a solubility (mole fraction) (in MIBK, 313.15 K) of 0.0433 and a solubility (mole fraction) (in MIBK, 318.15 K) of 0.0523. The solubility (mole fraction) (in MIBK, 323.15 K) was 0.0575, the solubility (mole fraction) (in MIBK, 328.15 K) was 0.07 and the solubility (mole fraction) (in MIBK, 333.15 K) was 0.077. The solubility (mole fraction) (in MIBK, 338.15 K) was 0.0891, the solubility (mole fraction) (in MIBK, 343.15 K) was 0.11 and the solubility (mole fraction) (in MIBK, 345.15 K) was 0.121. The solubility (mole fraction) (in MIBK, 348.15 K) was 0.132, the solubility (mole fraction) (in MIBK, 350.15 K) was 0.156 and the solubility (mole fraction) (in MIBK, 353.15 K) was 0.184. For the same molecule, the solubility (mole fraction) (in cyclopentyl methyl ether, 298.15 K) was 0.0121, the solubility (mole fraction) (in cyclopentyl methyl ether, 303.15 K) was 0.013 and the solubility (mole fraction) (in cyclopentyl methyl ether, 308.15 K) was 0.0168. The solubility (mole fraction) (in cyclopentyl methyl ether, 313.15 K) was 0.0208, the solubility (mole fraction) (in cyclopentyl methyl ether, 318.15 K) was 0.0266 and the solubility (mole fraction) (in cyclopentyl methyl ether, 323.15 K) was 0.032. The solubility (mole fraction) (in cyclopentyl methyl ether, 328.15 K) was 0.0374, the solubility (mole fraction) (in cyclopentyl methyl ether, 333.15 K) was 0.0425 and the solubility (mole fraction) (in cyclopentyl methyl ether, 338.15 K) was 0.054. It also gave a solubility (mole fraction) (in cyclopentyl methyl ether, 343.15 K) of 0.0674, a solubility (mole fraction) (in cyclopentyl methyl ether, 345.15 K) of 0.0749 and a solubility (mole fraction) (in cyclopentyl methyl ether, 348.15 K) of 0.0917. For the same molecule, the solubility (mole fraction) (in cyclopentyl methyl ether, 350.15 K) was 0.107, the solubility (mole fraction) (in cyclopentyl methyl ether, 353.15 K) was 0.133 and the solubility (mole fraction) (in ethyl acetate, 298.15 K) was 0.0111. It also gave a solubility (mole fraction) (in ethyl acetate, 303.15 K) of 0.0184, a solubility (mole fraction) (in ethyl acetate, 308.15 K) of 0.0228 and a solubility (mole fraction) (in ethyl acetate, 313.15 K) of 0.0281. For the same molecule, the solubility (mole fraction) (in ethyl acetate, 318.15 K) was 0.0338, the solubility (mole fraction) (in ethyl acetate, 323.15 K) was 0.0443 and the solubility (mole fraction) (in ethyl acetate, 328.15 K) was 0.0539. It also gave a solubility (mole fraction) (in ethyl acetate, 333.15 K) of 0.0612, a solubility (mole fraction) (in ethyl acetate, 338.15 K) of 0.069 and a solubility (mole fraction) (in gamma-butyrolactone, 298.15 K) of 0.0688. The solubility (mole fraction) (in gamma-butyrolactone, 303.15 K) was 0.0859, the solubility (mole fraction) (in gamma-butyrolactone, 308.15 K) was 0.105 and the solubility (mole fraction) (in gamma-butyrolactone, 313.15 K) was 0.136. The solubility (mole fraction) (in gamma-butyrolactone, 318.15 K) was 0.151, the solubility (mole fraction) (in gamma-butyrolactone, 323.15 K) was 0.173 and the solubility (mole fraction) (in gamma-butyrolactone, 328.15 K) was 0.212. It also gave a solubility (mole fraction) (in gamma-butyrolactone, 333.15 K) of 0.232, a solubility (mole fraction) (in gamma-butyrolactone, 338.15 K) of 0.263 and a solubility (mole fraction) (in n-butyl acetate, 298.15 K) of 0.0119. It also gave a solubility (mole fraction) (in n-butyl acetate, 303.15 K) of 0.0125, a solubility (mole fraction) (in n-butyl acetate, 308.15 K) of 0.0129 and a solubility (mole fraction) (in n-butyl acetate, 313.15 K) of 0.0153. For the same molecule, the solubility (mole fraction) (in n-butyl acetate, 318.15 K) was 0.0228, the solubility (mole fraction) (in n-butyl acetate, 323.15 K) was 0.0317 and the solubility (mole fraction) (in n-butyl acetate, 328.15 K) was 0.0379. It also gave a solubility (mole fraction) (in n-butyl acetate, 333.15 K) of 0.0477, a solubility (mole fraction) (in n-butyl acetate, 338.15 K) of 0.0619 and a solubility (mole fraction) (in n-butyl acetate, 343.15 K) of 0.0768. It also gave a solubility (mole fraction) (in n-butyl acetate, 345.15 K) of 0.093, a solubility (mole fraction) (in n-butyl acetate, 348.15 K) of 0.111 and a solubility (mole fraction) (in n-butyl acetate, 350.15 K) of 0.132. For the same molecule, the solubility (mole fraction) (in n-butyl acetate, 353.15 K) was 0.169, the solubility (mole fraction) (in toluene, 298.15 K) was 0.00039 and the solubility (mole fraction) (in toluene, 303.15 K) was 0.00056. For the same molecule, the solubility (mole fraction) (in toluene, 308.15 K) was 0.00073, the solubility (mole fraction) (in toluene, 313.15 K) was 0.0008 and the solubility (mole fraction) (in toluene, 318.15 K) was 0.00087. The solubility (mole fraction) (in toluene, 323.15 K) was 0.00093, the solubility (mole fraction) (in toluene, 328.15 K) was 0.00093 and the solubility (mole fraction) (in toluene, 333.15 K) was 0.00099. The solubility (mole fraction) (in toluene, 338.15 K) was 0.00105.
